In patent publication US20260049104A1, “PEPTIDES WITH ANTIMICROBIAL PROPERTIES” (priority 2022, published 2026):
Read-outs that look alike come from different tables or passages of the source. No end group written: not given here.

What was measured:
Pseudomonas aeruginosa = format: cell-based; settings: for MIC value: Table 15, unit inferred
Text: The experiments were repeated three times.

Staphylococcus aureus = Staphylococcus aureus ATCC 29737
Method: (§1) MIC screening of the peptides against a panel of ATCC and clinical strains was performed using broth microdilution method.^1 Briefly, peptides stock solutions in DMSO (0.1/G TFA) were diluted into Mueller Hinton Broth (MHB), followed by two-fold serial dilution in a 96-well plate. Bacteria culture in mid-log phase was diluted into MHB to yield […] colony-forming units (CFU)/mL. Equal volume of the starting inoculum was added to the peptide samples, then incubated for 18-20 h (37° C., 120 rpm). OD600 of the samples was then measured using Tecan Infinite M200 (TECAN, Männedorf, Switzerland). MIC is defined as the lowest peptide concentration to achieve more than 90% reduction in OD600 relative to the drug-free control. The experiments were repeated three times. Colistin-resistant clinical isolates are a kind gift from Dr. Jeanette Koh (National University Hospital, Singapore). Multidrug-resistant clinical isolates are a kind gift from Dr. Lakshminarayanan Rajamani (Singapore Eye Research Institute, Singapore).
(§2) Kanamycin and ampicillin were used as antibacterial control agents. […] Then, sequential 2-fold serial dilutions of the mix were diluted in 50 μL MH broth and 50 μL cell cultures were added to wells. […] All assays were carried out in triplicate.

Acinetobacter baumannii = settings: for MIC value: Table 15, unit inferred
Method: as §1, §2

Klebsiella pneumoniae = settings: for MIC value: Table 15, unit inferred
Method: as §1, §2

Escherichia coli = settings: for MIC value: Table 15, unit inferred
Method: as §1, §2

Enterobacter cloacae = settings: Table 15, unit inferred
Method: as §1, §2

E. coli M6 = settings: E. coli M6, compared with xenorceptide A2 (2)
Method: Resistance development of E. coli M6 against xenorceptide A2 was assessed by serial passaging of the bacteria in broth containing subinhibitory concentrations of the peptide. In brief, bacteria culture at mid-log phase was diluted to 10^5-10^6 CFU/mL in MHB containing 0.25×, 0.5×, 1×, 2×, and 4×MIC of the peptide. […] A new set of peptide concentration range was added to the cultures based on the latest MIC. This process was repeated over 14 days for three independent starting cultures.

[1] = Pseudomonas aeruginosa DR4877/07
[2] = Pseudomonas aeruginosa DR5790/07
[3] = Acinetobacter baumanii ACβA1001
[4] = Acinetobacter baumanii ACβA1002
[5] = Acinetobacter baumanii ACβA1003
[6] = Acinetobacter baumanii ACβA1004
[7] = ATCC 25922, printed under Klebsiella pneumoniae

CC(C)[C@@H]1NC(=O)[C@@H](N)Cc2c[nH]c3cc(ccc23)C(C(N)=O)[C@@H](C(=O)N[C@@H](C)C(=O)N[C@H]2Cc3ccc(cc3)C(C(N)=O)[C@@H](C(=O)N[C@H]3Cc4c[nH]c5cc(ccc45)C(CCCN)[C@@H](C(=O)N[C@@H](CCCNC(=N)N)C(=O)N[C@@H](Cc4ccccc4)C(=O)O)NC(=O)[C@H]([C@@H](C)O)NC3=O)NC(=O)[C@H](C)NC2=O)NC1=O (some centres unmarked) [xenorceptide A8]
2 µg/mL: MIC (Escherichia coli; Escherichia coli ATCC 25922)
64 µg/mL: MIC (Pseudomonas aeruginosa; Pseudomonas aeruginosa ATCC 9027)
4 µg/mL: MIC (Klebsiella pneumoniae; Klebsiella pneumoniae ATCC 700603)
>64 µg/mL: MIC (Staphylococcus aureus) | MIC (Acinetobacter baumannii; Acinetobacter baumannii ATCC 19606)

CC(C)[C@@H]1NC(=O)[C@@H](N)Cc2c[nH]c3cc(ccc23)C(C(N)=O)[C@@H](C(=O)N[C@@H](C)C(=O)N[C@H]2Cc3cccc(c3)C(CCNC(=N)N)[C@@H](C(=O)N[C@H]3Cc4c[nH]c5cc(ccc45)C(CCNC(=N)N)[C@@H](C(=O)N[C@@H](CCCNC(=N)N)C(=O)N[C@@H](Cc4c[nH]c5ccccc45)C(=O)O)NC(=O)[C@H](CO)NC3=O)NC(=O)[C@H](C)NC2=O)NC1=O (some centres unmarked) [xenorceptide A11]
8 µg/mL: MIC value (Enterobacter cloacae; Enterobacter cloacae CRE1014) | MIC value (Enterobacter cloacae; Enterobacter cloacae CRE1016) | MIC value (Escherichia coli; Escherichia coli M2)
16 µg/mL: MIC value (Pseudomonas aeruginosa; Pseudomonas aeruginosa DM4150R) | MIC value (Pseudomonas aeruginosa; Pseudomonas aeruginosa DM23376) | MIC value (Acinetobacter baumannii; [3]) | MIC value (Acinetobacter baumannii; [4]) | MIC value (Acinetobacter baumannii; [5]) | MIC value (Acinetobacter baumannii; [6]) | MIC value (Enterobacter cloacae; Enterobacter cloacae CRE1015) | MIC value (Enterobacter cloacae; Enterobacter cloacae CRE1017)
32 µg/mL: MIC value (Pseudomonas aeruginosa; [1]) | MIC value (Pseudomonas aeruginosa; [2])
2 µg/mL: MIC value (Escherichia coli; Escherichia coli M10)
1 µg/mL: MIC value (Klebsiella pneumoniae; [7])
4 µg/mL: MIC value (Klebsiella pneumoniae; CRE1006, Klebsiella pneumoniae) | MIC value (Klebsiella pneumoniae; Klebsiella pneumoniae CRE 1007) | MIC value (Klebsiella pneumoniae; Klebsiella pneumoniae CRE1008) | MIC value (Klebsiella pneumoniae; Klebsiella pneumoniae CRE1011) | MIC value (Klebsiella pneumoniae; Klebsiella pneumoniae CRE1012) | MIC value (Enterobacter cloacae; Enterobacter cloacae CRE1010) | MIC value (Escherichia coli; Escherichia coli M6) | MIC value (Escherichia coli; Escherichia coli M11)

CC(C)[C@@H]1NC(=O)[C@@H](N)Cc2c[nH]c3cc(ccc23)C(C(N)=O)[C@@H](C(=O)N[C@@H](C)C(=O)N[C@H]2Cc3cccc(c3)C(CCNC(=N)N)[C@@H](C(=O)N[C@H]3Cc4c[nH]c5cc(ccc45)C(CCCN)[C@@H](C(=O)N[C@@H](CCCNC(=N)N)C(=O)N[C@@H](Cc4c[nH]c5ccccc45)C(=O)O)NC(=O)[C@H](CO)NC3=O)NC(=O)[C@H](C)NC2=O)NC1=O (some centres unmarked) [xenorceptide A12-1]
4 µg/mL: MIC value (Klebsiella pneumoniae; Klebsiella pneumoniae CRE1008) | MIC value (Klebsiella pneumoniae; Klebsiella pneumoniae CRE1011) | MIC value (Klebsiella pneumoniae; Klebsiella pneumoniae CRE1012)
> 32 µg/mL: MIC value (Pseudomonas aeruginosa; Pseudomonas aeruginosa DM23376)
8 µg/mL: MIC value (Acinetobacter baumannii; [3]) | MIC value (Acinetobacter baumannii; [4]) | MIC value (Acinetobacter baumannii; [5]) | MIC value (Acinetobacter baumannii; [6]) | MIC value (Enterobacter cloacae; Enterobacter cloacae CRE1014) | MIC value (Enterobacter cloacae; Enterobacter cloacae CRE1016) | MIC value (Escherichia coli; Escherichia coli M2)
32 µg/mL: MIC value (Pseudomonas aeruginosa; Pseudomonas aeruginosa DM4150R) | MIC value (Pseudomonas aeruginosa; [1]) | MIC value (Pseudomonas aeruginosa; [2])
16 µg/mL: MIC value (Enterobacter cloacae; Enterobacter cloacae CRE1015) | MIC value (Enterobacter cloacae; Enterobacter cloacae CRE1017)
2 µg/mL: MIC value (Klebsiella pneumoniae; [7]) | MIC value (Klebsiella pneumoniae; CRE1006, Klebsiella pneumoniae) | MIC value (Klebsiella pneumoniae; Klebsiella pneumoniae CRE 1007) | MIC value (Enterobacter cloacae; Enterobacter cloacae CRE1010) | MIC value (Escherichia coli; Escherichia coli M6) | MIC value (Escherichia coli; Escherichia coli M10) | MIC value (Escherichia coli; Escherichia coli M11)

CC(C)[C@@H]1NC(=O)[C@@H](N)Cc2c[nH]c3cc(ccc23)C(C(N)=O)[C@@H](C(=O)N[C@@H](C)C(=O)N[C@H]2Cc3cccc(c3)C(CCNC(=N)N)[C@@H](C(=O)N[C@H]3Cc4c[nH]c5cc(ccc45)C(CCCN)[C@@H](C(=O)N[C@@H](CCCNC(=N)N)C(=O)N[C@@H](Cc4ccccc4)C(=O)O)NC(=O)[C@H](CO)NC3=O)NC(=O)[C@H](C)NC2=O)NC1=O (some centres unmarked) [xenorceptide A12-2]
4 µg/mL: MIC value (Klebsiella pneumoniae; Klebsiella pneumoniae CRE 1007) | MIC value (Klebsiella pneumoniae; Klebsiella pneumoniae CRE1008) | MIC value (Klebsiella pneumoniae; Klebsiella pneumoniae CRE1012) | MIC value (Escherichia coli; Escherichia coli M2) | MIC value (Escherichia coli; Escherichia coli M11)
16 µg/mL: MIC value (Acinetobacter baumannii; [3]) | MIC value (Acinetobacter baumannii; [5]) | MIC value (Acinetobacter baumannii; [6]) | MIC value (Enterobacter cloacae; Enterobacter cloacae CRE1015) | MIC value (Enterobacter cloacae; Enterobacter cloacae CRE1016)
32 µg/mL: MIC value (Pseudomonas aeruginosa; Pseudomonas aeruginosa DM4150R) | MIC value (Pseudomonas aeruginosa; Pseudomonas aeruginosa DM23376) | MIC value (Pseudomonas aeruginosa; [1]) | MIC value (Pseudomonas aeruginosa; [2]) | MIC value (Enterobacter cloacae; Enterobacter cloacae CRE1014) | MIC value (Enterobacter cloacae; Enterobacter cloacae CRE1017)
2 µg/mL: MIC value (Klebsiella pneumoniae; CRE1006, Klebsiella pneumoniae) | MIC value (Enterobacter cloacae; Enterobacter cloacae CRE1010) | MIC value (Escherichia coli; Escherichia coli M6) | MIC value (Escherichia coli; Escherichia coli M10)
8 µg/mL: MIC value (Acinetobacter baumannii; [4]) | MIC value (Klebsiella pneumoniae; Klebsiella pneumoniae CRE1011)
1 µg/mL: MIC value (Klebsiella pneumoniae; [7])

WVNAYARWTKRF [SEQ ID 26]
8 µg/mL: MIC (E. coli) (Escherichia coli; strain not stated, product produced and tested against E. coli)

Xenorceptide B1 (GDRWLKWIKNH; listed as Photorhabdus laumondii)
> 32 µg/mL: MIC value (Pseudomonas aeruginosa; Pseudomonas aeruginosa DM4150R) | MIC value (Pseudomonas aeruginosa; Pseudomonas aeruginosa DM23376) | MIC value (Pseudomonas aeruginosa; [1]) | MIC value (Pseudomonas aeruginosa; [2]) | MIC value (Acinetobacter baumannii; [3]) | MIC value (Acinetobacter baumannii; [4]) | MIC value (Acinetobacter baumannii; [5]) | MIC value (Acinetobacter baumannii; [6]) | MIC value (Acinetobacter baumannii; Acinetobacter baumanii ATCC 19606) | MIC value (Klebsiella pneumoniae; [7]) | MIC value (Klebsiella pneumoniae; CRE1006, Klebsiella pneumoniae) | MIC value (Klebsiella pneumoniae; Klebsiella pneumoniae CRE 1007) | MIC value (Klebsiella pneumoniae; Klebsiella pneumoniae CRE1008) | MIC value (Klebsiella pneumoniae; Klebsiella pneumoniae CRE1011) | MIC value (Klebsiella pneumoniae; Klebsiella pneumoniae CRE1012) | MIC value (Enterobacter cloacae; Enterobacter cloacae ATCC 13047) | MIC value (Enterobacter cloacae; Enterobacter cloacae CRE1010) | MIC value (Enterobacter cloacae; Enterobacter cloacae CRE1014) | MIC value (Enterobacter cloacae; Enterobacter cloacae CRE1015) | MIC value (Enterobacter cloacae; Enterobacter cloacae CRE1016) | MIC value (Enterobacter cloacae; Enterobacter cloacae CRE1017) | MIC value (Escherichia coli; Escherichia coli M2) | MIC value (Escherichia coli; Escherichia coli M6) | MIC value (Escherichia coli; Escherichia coli M10) | MIC value (Escherichia coli; Escherichia coli M11)

colistin [reference compound]
readily became less susceptible: development of reduced susceptibility in serial passage (E. coli M6)
